Measured values: BindingDB's records for doi:10.7270/Q2F769ZM (The Scripps Research Institute Molecular Screening Center, 2007)

Biological target: Rho-associated protein kinase 2 (Homo sapiens, UniProt O75116)
Assay: human Rho kinase 2 inhibition – biochemical, Kinase-Glo luminescence, S6 peptide, 1536-well, dose response (AID 644)
Conditions: not given

Chain of Rho-associated protein kinase 2 (O75116 whole entry): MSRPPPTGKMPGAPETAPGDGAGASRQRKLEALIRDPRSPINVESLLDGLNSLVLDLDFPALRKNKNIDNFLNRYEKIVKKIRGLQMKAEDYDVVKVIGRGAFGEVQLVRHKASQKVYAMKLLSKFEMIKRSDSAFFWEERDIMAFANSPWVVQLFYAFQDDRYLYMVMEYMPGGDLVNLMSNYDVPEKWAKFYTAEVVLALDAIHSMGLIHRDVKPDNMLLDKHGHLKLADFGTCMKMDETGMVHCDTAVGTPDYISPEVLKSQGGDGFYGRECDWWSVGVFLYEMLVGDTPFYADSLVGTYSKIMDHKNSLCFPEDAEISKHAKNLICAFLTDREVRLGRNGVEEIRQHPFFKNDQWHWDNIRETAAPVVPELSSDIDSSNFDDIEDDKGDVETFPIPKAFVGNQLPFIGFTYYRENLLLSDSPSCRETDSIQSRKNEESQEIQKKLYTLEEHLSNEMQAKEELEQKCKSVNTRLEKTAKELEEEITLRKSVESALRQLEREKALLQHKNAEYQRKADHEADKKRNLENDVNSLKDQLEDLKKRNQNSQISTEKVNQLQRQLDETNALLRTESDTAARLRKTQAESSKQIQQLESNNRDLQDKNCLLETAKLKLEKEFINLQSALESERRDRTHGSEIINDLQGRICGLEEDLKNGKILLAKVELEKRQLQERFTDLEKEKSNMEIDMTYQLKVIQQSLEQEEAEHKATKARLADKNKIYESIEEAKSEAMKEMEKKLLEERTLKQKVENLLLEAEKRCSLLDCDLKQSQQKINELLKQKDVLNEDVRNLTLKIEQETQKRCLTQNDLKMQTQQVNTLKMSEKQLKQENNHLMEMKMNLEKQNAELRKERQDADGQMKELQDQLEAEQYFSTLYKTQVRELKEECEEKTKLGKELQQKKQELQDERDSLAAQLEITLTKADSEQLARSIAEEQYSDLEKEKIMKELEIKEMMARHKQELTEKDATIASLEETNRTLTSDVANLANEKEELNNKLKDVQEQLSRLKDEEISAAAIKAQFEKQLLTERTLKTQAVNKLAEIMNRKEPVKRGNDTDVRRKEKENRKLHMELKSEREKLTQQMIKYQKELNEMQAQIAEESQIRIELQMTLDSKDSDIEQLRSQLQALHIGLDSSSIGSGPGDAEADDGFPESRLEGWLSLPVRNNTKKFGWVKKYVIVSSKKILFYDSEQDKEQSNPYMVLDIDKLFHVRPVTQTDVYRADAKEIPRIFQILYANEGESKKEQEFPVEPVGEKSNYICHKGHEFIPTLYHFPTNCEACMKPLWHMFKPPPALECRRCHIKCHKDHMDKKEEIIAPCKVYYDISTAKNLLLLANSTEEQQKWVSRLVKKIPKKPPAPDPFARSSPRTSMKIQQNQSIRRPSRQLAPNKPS

IC50	Structure (SMILES)
> 19.9 µM	N#Cc1cccc(NC(=O)CSc2ccccc2)c1 [MLS000099417]
> 59.6 µM	Cn1c(C(=O)N2CCCC(C(=O)N3CCN(C(=O)c4ccco4)CC3)C2)cc2sccc21 (stereo not given) [MLS000119519]
1.73 µM	O=C(Nc1ccncc1)C1CCCN(S(=O)(=O)c2cccc3cccnc23)C1 (stereo not given) [MLS000118826]
> 19.9 µM	O=C1NC(=O)c2cc(NC(=O)C3CCCCC3)ccc21 [MLS000062910]
> 19.9 µM	CCCCCC(=O)Nc1ccc2oc(-c3ccncc3)nc2c1 [MLS000039066]
> 59.6 µM	C(=Nc1nc2ccccc2n1CCN1CCCCC1)c1cccs1 [MLS000038975]
> 59.6 µM	Cc1cc(=O)n(-c2ccccc2)[nH]1 [MLS000069602]

Further lines, the molecule ahead of its results:

Structure (SMILES)	IC50
Cc1cccc2cc(=O)[nH]c(C)c12 [1,8-dimethyl-2H-isoquinolin-3-one]	> 59.6 µM
CC(=O)c1cccc(NC(=O)NCc2cccs2)c1 [1-(3-acetylphenyl)-3-(2-thenyl)urea]	> 59.6 µM
Oc1ncnc2cc(Cl)ccc12 [7-Chloro-quinazolin-4-ol]	> 19.9 µM
CCn1cc(C(=O)Nn2cnnc2)c(=O)c2ccc(C)nc21 [1-ethyl-4-keto-7-methyl-N-(1,2,4-triazol-4-yl)-1,8-naphthyridine-3-carboxamide]	> 59.6 µM
c1nc(N2CCOCC2)c2nc[nH]c2n1 [4-(7H-purin-6-yl)morpholine]	7.09 µM
COc1ccc2cc3c(N)c(C(=O)NCc4ccco4)sc3nc2c1 [3-Amino-7-methoxy-thieno[2,3-b]quinoline-2-carboxylic acid (furan-2-ylmethyl)-amide]	> 19.9 µM
CN1c2cccc3cccc(c23)C1N=O (stereo not given) [1-Methyl-1H-benzo[cd]indol-2-one oxime]	> 19.9 µM
Clc1ccccc1-c1nn2c(-c3ccncc3)nnc2s1 [6-(2-chlorophenyl)-3-(4-pyridinyl)[1,2,4]triazolo[3,4-b][1,3,4]thiadiazole]	> 59.6 µM
Cc1c2ccncc2c(C)c2c1[nH]c1ccccc12 [5,11-dimethyl-2H-pyrido[4,3-b]carbazole]	6.68 µM
COc1cc(N=CC2C(=O)Nc3ccccc32)cc(OC)c1OC (stereo not given)	10.5 µM
Cc1[nH]c2ccccc2c1C1=CCNCC1 [MLS000045807]	9.63 µM
Cn1c(CSCc2ccc(Cl)c(Cl)c2)nnc1SCC(=O)Nc1nccs1 [2-[(5-{[(3,4-dichlorobenzyl)thio]methyl}-4-methyl-4H-1,2,4-triazol-3-yl)thio]-N-1,3-thiazol-2-ylacetamide]	> 19.9 µM
COC(=O)c1sc2cnccc2c1N [3-amino-2-thieno[2,3-c]pyridinecarboxylic acid methyl ester]	8.3 µM
c1coc(CNc2ncnc3sc4c(c23)CCCCC4)c1 [2-furfuryl(6,7,8,9-tetrahydro-5H-cyclohepta[4,5]thieno[1,2-c]pyrimidin-4-yl)amine]	> 59.6 µM
COc1ccc2c(Cl)c(C(N)=O)sc2c1 [3-Chloro-6-methoxy-benzo[b]thiophene-2-carboxylic acid amide]	6.83 µM
Nc1nc2ccccc2n1C(=O)CCc1ccccc1 [1-(2-Amino-benzoimidazol-1-yl)-3-phenyl-propan-1-one]	> 59.6 µM

Same assay, conditions: inactive by the depositor's call

IC50	Structure (SMILES)
18.8 µM	Cc1cc2c(ccc3[nH]onc32)n1 [MLS000038925]
16.1 µM	N#Cc1cccc(NC(=O)NCCc2c[nH]c3ccccc23)c1 [SMR000096894]
16.3 µM	O=C(c1ccccc1)c1ccc2[nH]cnc2c1 [MLS000034982]

Further lines, the molecule ahead of its results:

Structure (SMILES)	IC50
COC1(OC)N=C(N)C2(C#N)C(c3ccc4c(c3)OCO4)C12C#N (stereo not given)	47.9 µM
Cc1c(C(=O)Nc2ccc3oc(-c4cccnc4)nc3c2)oc2ccccc12 [3-Methyl-benzofuran-2-carboxylic acid (2-pyridin-3-yl-benzooxazol-5-yl)-amide]	1010 µM
Cc1ccc(SCc2nc(-c3ccncc3)no2)cc1 [4-(5-{[(4-methylphenyl)thio]methyl}-1,2,4-oxadiazol-3-yl)pyridine]	42.6 µM
Brc1ccc2[nH]ncc2c1	16.3 µM
